Tested on: HBEC-F508del
Test: Transepithelial short-circuit anion current in HBEC-F508del, Example 3
Type: cell-based, human
Description: Methods: Transepithelial short-circuit current and ^36Cl net flux (Jnet) were measured in differentiated HBEC-F508del bathed in vehicle (no AA), AA test formulation (CF5AA-3) or AA negative control (NC; CF4AA-3) in Ussing chambers. Cells were treated with C18 (VX809-analogue), VX661 or DMSO for 24 hours. After blocking ENaC with benzamil, chloride secretion was stimulated using GLPG1837 (VX770-analogue) with or without forskolin. CFTRinh-172, CaCCinh-A01 or bumetanide were added to distinguish CFTR-, TMEM16A- and NKCC1-sensitive chloride currents, respectively. Western blot was performed on HBEC-F508del membrane fractions to determine apical CFTR expression.

CC(C)(CO)c1cc2cc(NC(=O)C3(c4ccc5c(c4)OC(F)(F)O5)CC3)c(F)cc2n1C[C@@H](O)CO [VX661, tezacaftor]
basal anion current (corrector pretreatment 24 hours, cells bathed in vehicle (no AA)): 1.5±0.2 μA
peak anion current after stimulation with forskolin and GLPG1837 (forskolin and GLPG1837): 7.9±0.7 μA

Source: US12220400B2, “Amino acid compositions and methods for treating cystic fibrosis” (UNIVERSITY OF FLORIDA RESEARCH FOUNDATION, INCORPORATED, priority 2018, dated 2025)
